# Source: paper PMC4071299 (Toxicology Reports, 2014)
# Like-named read-outs stand apart in the source and are kept apart here.
# Columns and labels:
# estradiol sulfation = conditions: in vitro; cited from earlier work
# [1] = 20 mg/kg, male F-344 rats; cited from earlier work
# MtT/E-2 cells = conditions: lower extent than bisphenol A; cited from earlier work
# [2] = male SD rats, cited from earlier work; for Cmax: read-out: plasma Cmax
# MCF-7 cells = conditions: cited from earlier work
# [3] = Plasma toxicokinetics of free TBBPA after oral or IV administration; type: in vivo, female Crl:WI(Han) rats; conditions: for AUC: free TBBPA in plasma; for half-life: iv, 25 mg/kg
# [4] = Biliary elimination in bile-duct cannulated rats after oral dose; type: in vivo, female Crl:WI(Han) rats; conditions: oral […] mg/kg, 6 h
# [5] = test system: progesterone receptor (PR); conditions: transfected yeast; cited from earlier work
# TTR = conditions: cited from earlier work
# [6] = test system: rat thyroid hormone receptor; conditions: cited from earlier work
# [7] = Disposition of [14C]-radioactivity after IV administration of TBBPA; type: in vivo, female Crl:WI(Han) rats; conditions: IV 25 mg/kg
# [8] = Elimination and distribution after repeated oral administration; type: in vivo, female Crl:WI(Han) rats; conditions: […] mg/kg for 5 days
# rats [9] = conditions: single dose by gavage to rats; cited from earlier work
# [10] = test system: estrogen sulfotransferase SULT1E1; conditions: crystallographic studies; cited from earlier work
# human transthyretin = conditions: cited from earlier work
# rats [11] = conditions: cited from earlier work
# [12] = Disposition and elimination of [14C]-radioactivity after single oral; type: in vivo, female Crl:WI(Han) rats
smiles,measurement,setting,value
"CC(C)(c1cc(Br)c(O)c(Br)c1)c1cc(Br)c(O)c(Br)c1 [TBBPA, 2,2′,6,6′-Tetrabromo-4,4′-isopropylidene diphenol]",effect on estradiol sulfation,estradiol sulfation,inhibitor
same,systemic bioavailability,[1],1.6%
same,cell proliferation,MtT/E-2 cells,enhanced proliferation
same,Tmax,"[2]; oral 200, 500 and 1000 mg/kg",252 to 300 min
same,Cmax,[2]; 300 mg/kg,103 µM
same,Cmax,[2]; oral 200 mg/kg,23 µM
same,Cmax,[2]; oral 500 mg/kg,34 µM
same,Cmax,[2]; oral 1000 mg/kg,57 µM
same,estrogenic activity,MCF-7 cells,estrogenic activity
same,administered radioactivity remaining in plasma,"[3]; IV 25 mg/kg, 6 h post dose",~2%
same,AUC,[3]; IV (25 mg/kg),4286 nmol·min/mL
same,AUC,[3]; Oral ([…] mg/kg),1729 nmol·min/mL
same,half-life,"[3]; female, Crl:WI(Han), rat, plasma, distribution half-life, IV 25 mg/kg, two-compartment model",2 min
same,half-life,"[3]; female, Crl:WI(Han), rat, plasma, terminal half-life, IV 25 mg/kg, non-compartmental analyses",133 min
same,half-life,"[3]; female, Crl:WI(Han), rat, plasma, terminal half-life, IV 25 mg/kg, two-compartment model",22 min
same,Cmax,"[3]; female, Crl:WI(Han), rat, plasma, po, 250 mg/kg",5.4 µM
same,"[14C]-radioactivity, bile",[4],6 ± 7 % dose
same,PR activity,[5],antagonist
same,TTR binding,TTR,T4 competitor
same,binding to thyroid hormone receptor,[6],high affinity
same,administered radioactivity eliminated in feces within 6 h,[7],Approx. 10%
same,administered radioactivity eliminated in urine within 6 h,[7],~1%
same,dose recovered in contents of large intestine,[7]; 6 h post dose,~61%
same,dose recovered in contents of small intestine,[7]; 6 h post dose,approx. 15%
same,"[14C]-radioactivity, all other tissues",[7]; 6 h post-dose,less than 1 % of the administered dose
same,"[14C]-radioactivity, adipose",[7]; 6 h post-dosing,1 ± 0.8%
same,"[14C]-radioactivity, large intestine",[7]; 6 h post-dosing,3.2 ± 3%
same,"[14C]-radioactivity, liver",[7]; 6 h post-dosing,1.8 ± 0.6%
same,"[14C]-radioactivity, small intestine",[7]; 6 h post-dosing,3.2 ± 3.1%
same,terminal dose recovered from feces,[8]; 24 h after final ([14C]) dose,84 ± 8%
same,dose recovered in urine,[8]; 24 h after final dose,Less than 1%
same,tissue retention,[8]; 24 h after final dose,minimal
same,LD50,rats [9],greater than 5 g/kg
same,binding to SULT1E1,[10],high affinity
same,binding to transthyretin,human transthyretin,bind
same,toxicity after intraperitoneal administration,rats [11],hepatotoxicity and heme metabolism disturbances
same,dose recovery in feces in 72 h,[12]; oral 25 mg/kg,95.7 ± 3.5%
same,dose recovery in feces in 72 h,[12]; oral 1000 mg/kg,98.8 ± 2.2%
same,dose recovered in urine,"[12]; oral 25, 250 or 1000 mg/kg, 72 h",0.2–2 % of dose
same,dose recovery in feces in 72 h,[12]; oral […] mg/kg,94.3 ± 3.6%
same,radioactivity in tissues at 24 h,[12]; oral […] mg/kg,< 2%
same,"[14C]-radioactivity, blood","[12]; oral […] mg/kg, 1 h",0.6 ± 0.2 % dose
same,"[14C]-radioactivity, blood","[12]; oral […] mg/kg, 3 h",0.4 ± 0.2 % dose
same,"[14C]-radioactivity, feces","[12]; oral […] mg/kg, 6 h",0.1 ± 0.1 % dose
same,"[14C]-radioactivity, urine","[12]; oral […] mg/kg, 6 h",1.2 ± 0.7 % dose
same,"[14C]-radioactivity, blood","[12]; oral […] mg/kg, 24 h",0.06 ± 0.05 % dose
same,"[14C]-radioactivity, feces","[12]; oral […] mg/kg, 24 h",82 ± 18 % dose
same,"[14C]-radioactivity, large intestine","[12]; oral […] mg/kg, 24 h",0.3 ± 0.1 % dose
same,"[14C]-radioactivity, urine","[12]; oral […] mg/kg, 24 h",0.3 ± 0.1 % dose
same,administered [14C]-radioactivity detected in tissues,[12]; tissues collected at 72 h following oral doses,< 0.1%
"CC(C)(O)c1cc(Br)c(O)c(Br)c1 [2,6-dibromo-4-[2-hydroxypropane-2-yl]-phenol]",estrogenic activity,MCF-7 cells,estrogenic activity
"COC(C)(C)c1cc(Br)c(O)c(Br)c1 [2,6-dibromo-4-[2-methoxypropane-2-yl]-phenol]",estrogenic activity,MCF-7 cells,estrogenic activity
